Values joined by “and” are separate entries in the source; they are usually repeats but may differ in a detail not shown here. Equal entries are not always repeated.
Legend:
[1] = Metabolite profiling in plasma by HPLC–LSC; type: in vivo, human; settings: for Occurrence in plasma: radiochromatography of plasma; for Percent of total AUC(0–144) of radioactivity in plasma: based on HPLC–LSC, mean
Procedure: Blood and plasma: Blood samples (18.7 mL per each time point) were collected into nonbeaded lithium-heparinized tubes immediately pre-dose and at the following post-dose times: 0.5, 1, 1.5, 2, 2.5, 3, 4, 6, 9, 12, 16, 20, 24, 36, 48, 72, 96, 120, 144, 192, 240, and 288 h. For each sample, 1 mL of whole blood was stored at 4 °C for subsequent LSC and the remainder was processed for plasma. Individual 150 μL plasma samples for each time point were treated with formic acid (20 μL) and acetonitrile (450 μL). The samples were homogenized using a MS2 Minishaker® (IKA® Labortechnik, Staufen im Breisgau, Germany). The precipitated proteins were removed by centrifugation (5 min, 13,000 rpm, Biofuge). After concentrating the supernatant to about 80 μL, methanol (15 μL) was added. The individual samples were analyzed by HPLC with off-line radioactivity detection for metabolite profiling.
Pharmacokinetic outcome measures were generated by non-compartmental analysis of plasma concentration–time data using WinNonlin v4.1 (Pharsight Corporation) in conjunction with Kincalc v2.50 (Bayer AG). For individual subjects, primary outcome measures were maximum observed concentration (C max) and area under the concentration–time curve from time zero to infinity (AUC). […] The metabolite or regorafenib percentages were calculated by AUC(0–144)metabolite or regorafenib divided by AUC(0–144)radioactivity calculated from data obtained by HPLC–LSC analysis. Secondary outcomes were: time to C max (t max); apparent terminal elimination half-life (t ½); apparent volume of distribution during the terminal phase after extravascular administration (Vz/F); and total body clearance of drug calculated after extravascular administration (e.g., apparent oral clearance) (CL/F). AUC was estimated by the sum of partial areas: partial areas were calculated using the linear (if C i ≤ C i+1) or the logarithmic (if C i > C i+1) trapezoidal rules. The quality of the half-life calculation was assessed based on graphs showing the concentration–time profile. For reliable calculation of the half-life, at least three data points (concentration/time values) were used. The extrapolated portion of the AUC from the last measured data point C(t n) to infinity was calculated using the concentration C last,calc, which was calculated from the log-linear regression line used for half-life calculation rather than C(t n). In addition, appropriate pharmacokinetic parameters were derived from the total radioactivity-versus-time data in blood and plasma.
(§1) Due to the limited amount of radiocarbon associated with many of the samples, analyses were conducted using HPLC with fraction collection followed by off-line LSC. Samples were analyzed on a 150 × 3 mm Prodigy® ODS-3 100A, 3 µm column (Phenomenex, Aschaffenburg, Germany) protected by 8 × 3 mm Nucleosil® 100-3 C18 HD guard columns (Macherey–Nagel, Düren, Germany). Metabolites were separated with a gradient of aqueous potassium dihydrogen phosphate (1 g/L, pH 2.0, mobile phase A) versus acetonitrile (mobile phase B) at a flow rate of 0.5 mL/min (gradient: 0% B at 0 min, linear to 50% B at 10 min, linear to 60% B at 25 min, linear to 80% B at 26 min, plateau at 80% B to 30 min). The radiochemical profile of [^14C]regorafenib-derived radioactivity was determined for all urine samples, plasma extracts, and fecal homogenate extracts. Here, HPLC fractionation into 96-well plates was followed by off-line LSC (Wallac 1450 MicroBeta liquid scintillation analyzer) after adding 150 μL of scintillation cocktail to each well (Ultima-Flo™ AP, PerkinElmer; sampling rate: 10 s/well) using the Wallac 1450 Microbeta™ Plusliquid detector. Reconstructed radiochemical profiles were compiled from the resulting data.

human feces = test: Incubation with human feces under anaerobic conditions; type: in vitro ADME; settings: for Stability in feces / toward gut flora: anaerobic conditions, ex vivo; for Conversion to the parent drug on incubation in feces: 10 μM, 24 h, 37 °C, anaerobic, reduction of M-2, hydrolysis of M-7
Procedure: Under anaerobic conditions, a suspension of fresh human feces (about 0.5 g) in degassed water (final volume 5 mL) was treated with a solution of [^14C]-labelled metabolite M-2 or metabolite M-7 (1 mg/mL acetonitrile; final concentration: 10 μM). After incubation for 24 h at 37 °C, the incubation mixture was terminated by the addition of acetonitrile (2 mL). After centrifugation (5 min, 3000 rpm), the supernatant (25 μL) was directly subjected to HPLC with the respective off-line radioactivity detection. As negative controls, metabolites M-2 and M-7 were incubated in water for 24 h at 37 °C.

human hepatocytes = test: In vitro metabolism of [14C]regorafenib in human hepatocytes; type: in vitro ADME; settings: [14C]regorafenib 2 µM, 2 h
Procedure: Primary human hepatocytes were obtained from two male donors. […] Regorafenib was added from a 200 µM stock solution in acetonitrile, resulting in 1% final acetonitrile in the incubation. At 0 and 2 h, aliquots of the incubation mixture were removed and the incubation was terminated with acetonitrile to a final content of about 30% (v/v). Samples were analyzed directly or stored at − 20 °C until analysis. Analysis was performed by HPLC–liquid scintillation counting (HPLC–LSC) and HPLC–high-resolution mass spectrometry (HPLC–HRMS/MS).

[2] = Mass balance: urinary and fecal excretion of radioactivity and metabolite pattern in excreta; type: in vivo, human; settings: individual values of the four subjects
Procedure: Urine: Urine samples were collected at 12-h intervals post-dose on Day 1 and then at 24-h intervals until 288 h post-dose. Urine was stored at 4 °C until it was divided into aliquots for LSC and subsequent metabolite profiling (aliquots were stored at − 20 °C).
Feces: Fecal samples were collected and homogenized in water on a daily basis until 12 days post-dose. Duplicate aliquots of the homogenates were taken for combustion with oxygen (in preparation for LSC), and separate aliquots were used for metabolite profiling.
Liquid samples: Duplicate aliquots of liquid samples were diluted with 1 mL distilled water, if necessary, and mixed with 10 mL Aquasafe 500 Plus scintillation fluid. Levels of radioactivity were measured by LSC (PerkinElmer 2100) with automatic quench correction by an external standard channel ratio method at 13 °C using Ultima Gold™ as the liquid scintillation cocktail. Lower limits of detection (LLOD) were 30 μg-Eq/L for plasma (sample volume 0.5 mL), 50 μg-Eq/L for whole blood (sample volume 0.3 mL), and 0.016 μg-Eq/g for urine (sample weight 1 g).
Fecal samples: Duplicate aliquots of fecal homogenate (about 0.3 g) were weighed into Combustocones® containing Combustopads® for combustion analysis. Samples were combusted using a Packard Tri-Carb 307 Automatic Sample Oxidizer. The resultant ^14CO2 generated was collected by absorption in Carbo-Sorb (8 mL) to which Permafluor E+ (10 mL) was added. Radioactivity was quantified using a liquid scintillation analyzer (PerkinElmer 2100), with automatic quench correction using an external standard method as urine sample analysis. Samples were allowed to stabilize with respect to heat and light, and each sample was analyzed for 5 min. Prior to calculation of individual results, a background count rate was determined and subtracted from each sample’s count rate. LOD was 0.05 μg-Eq/g (sample weight 0.3 g).
as §1

[3] = set-up: method as in PMID 22421192, PMID 22568966; settings: cited from earlier work; for Exposure relative to regorafenib after a single dose: plasma; for Secondary maximum of plasma concentration–time profile / Tertiary maximum of plasma concentration–time profile: steady state
[4] = set-up: method as in PMID 27734608; settings: cited from earlier work
[5] = set-up: method as in PMID 24896071; settings: co-administration of ketoconazole with a single 160 mg dose of regorafenib; cited from earlier work

| SMILES | Occurrence in plasma [1] | Stability in feces / toward gut flora (human feces) | Formation in human hepatocytes (human hepatocytes) | Percent of total AUC(0–144) of radioactivity in plasma [1] [%] | Mean total exposure, AUC(0–144 h) ([1]; plasma, HPLC–LSC) [mg-Eq·h/L] | further results |
| --- | --- | --- | --- | --- | --- | --- |
| CNC(=O)c1cc(Oc2ccc(NC(=O)N(c3ccc(Cl)c(C(F)(F)F)c3)C3OC(C(=O)O)C(O)C(O)C3O)c(F)c2)cc[n+]1[O-] (stereo not shown) [M-8] | only occasionally found as traces in plasma | not stable | observed |  |  | Course of degradation on incubation with human feces (human feces): reduction of the N-oxide leading to M-7 proceeded much faster than cleavage of the N-glucuronide yielding M-2 |
| O=C(Nc1ccc(Cl)c(C(F)(F)F)c1)Nc1ccc(Oc2ccnc(C(=O)NCO)c2)cc1F [M-3] | only occasionally found as traces in plasma |  | identified |  |  |  |
| O=C(Nc1ccc(Cl)c(C(F)(F)F)c1)Nc1ccc(Oc2ccnc(C(=O)O)c2)cc1F [M-6] |  |  | identified |  |  |  |
| NC(=O)c1cc(Oc2ccc(NC(=O)Nc3ccc(Cl)c(C(F)(F)F)c3)c(F)c2)ccn1 [M-4] | only occasionally found as traces in plasma |  | identified |  |  |  |
| O=C(Nc1ccc(Cl)c(C(F)(F)F)c1)Nc1ccc(Oc2cc[n+]([O-])c(C(=O)NCO)c2)cc1F [M-1] | only occasionally found as traces in plasma |  | observed |  |  |  |
| CNC(=O)c1cc(Oc2ccc(NC(=O)N(c3ccc(Cl)c(C(F)(F)F)c3)C3OC(C(=O)O)C(O)C(O)C3O)c(F)c2)ccn1 (stereo not shown) [M-7] |  | not stable | identified | 3.1 | 2.43 | C max, range between subjects ([1]; plasma, HPLC–LSC): 137–174 μg-Eq/L; Fecal excretion of M-7 in individual subjects [2]: 0.03 % of the dose and 0.3 % of the dose and about 6.0 % of the dose and 13.7 % of the dose and about 14 % of the dose; Conversion to the parent drug on incubation in feces (human feces): < 10% |
| NC(=O)c1cc(Oc2ccc(NC(=O)Nc3ccc(Cl)c(C(F)(F)F)c3)c(F)c2)cc[n+]1[O-] [M-5] |  |  | observed | 6.3 | 2.00 | Terminal half-life (t 1/2) [3]: about 60 h; Exposure relative to regorafenib after a single dose [3]: signficantly lower exposure than regorafenib; Secondary maximum of plasma concentration–time profile [3]: 6 to 8 h; Tertiary maximum of plasma concentration–time profile [3]: ~24 h; Fraction unbound in plasma [4]: 0.053%; Decrease in mean AUC [5]: > 90%; Decrease in mean C max [5]: > 90% |
| CNC(=O)c1cc(Oc2ccc(NC(=O)Nc3ccc(Cl)c(C(F)(F)F)c3)c(F)c2)cc[n+]1[O-] [M-2] |  | not stable | identified | 28.7 | 20.16 | half-life ([1]; male, human, plasma, oral, 120 mg, read-out: Half-life of M-2, range between subjects): 11 to 33 h; Conversion to the parent drug on incubation in feces (human feces): quantitative; Exposure relative to regorafenib after a single dose [3]: signficantly lower exposure than regorafenib; Secondary maximum of plasma concentration–time profile [3]: 6 to 8 h; Tertiary maximum of plasma concentration–time profile [3]: ~24 h; Fraction unbound in plasma [4]: 0.188%; Decrease in mean AUC [5]: > 90%; Decrease in mean C max [5]: > 90% |

Source: publication PMC5754413, “Mass balance, metabolic disposition, and pharmacokinetics of a single oral dose of regorafenib in healthy human subjects” (Cancer Chemotherapy and Pharmacology, 2017)
